pIC50: −log10 of the molar value.
Assays:
Assay type in all cases: cell-based
COS7 cells = assay: MTT proliferation assay, untransfected COS7 cells (negative control); settings: Chlorocebus aethiops, COS-7, 168 h, 7 days, read-out: IC50, inhibition of cell proliferation
Experimental: Cells were plated in 96-well plates and treated the day after. Seven days after plating the cell survival was measured using 3-(4,5-dimethylthiazol-2-yl)-2,5-diphenyltetrazolium bromide substrate and measuring the absorbance at 550 nm.
(§1) (Connolly, 2003). The 4306 cells were provided by Dr. Daniela Dinulescu, Brigham and Women's (Boston) (30). Cells were plated at a density of 1000 cells/well in 96-well plates and treated 24 h later. The cell proliferation was measured after 7 days by registering the absorbance at 550 nm. Paclitaxel was manufactured by Ivax Pharmaceuticals and obtained from the MGH pharmacy.
The cells were treated for 7 days and the proliferation was measured by spectrophotometry. To exclude cytotoxic effects on the cells unrelated to MIS signal transduction, we used untransfected COS7 cells as a negative control. […] Paclitaxel is used in treatment of a wide range of tumors, but the side effects can be debilitating (Pieretti-Vanmarcke, 2006a, Pieretti-Vanmarcke, 2006b).

[1] = test system: type II receptor for activin; assay: CAGA-promoter luciferase reporter in COS7 cells co-transfected with activin type II receptor; settings: alone or in combination with the receptor-ligand, COS7 (data not shown)
MISRIIK228R = biological target: T1, MISRIIK228R (Rattus norvegicus, UniProt Q62893, K228R); assay: BRE-luciferase reporter assay in COS7 cells with kinase-deficient receptor MISRIIK228R
T1 construct: expressed in transfected cells; host or cells: COS7
T1 sequence (Q62893 18-557 K228R): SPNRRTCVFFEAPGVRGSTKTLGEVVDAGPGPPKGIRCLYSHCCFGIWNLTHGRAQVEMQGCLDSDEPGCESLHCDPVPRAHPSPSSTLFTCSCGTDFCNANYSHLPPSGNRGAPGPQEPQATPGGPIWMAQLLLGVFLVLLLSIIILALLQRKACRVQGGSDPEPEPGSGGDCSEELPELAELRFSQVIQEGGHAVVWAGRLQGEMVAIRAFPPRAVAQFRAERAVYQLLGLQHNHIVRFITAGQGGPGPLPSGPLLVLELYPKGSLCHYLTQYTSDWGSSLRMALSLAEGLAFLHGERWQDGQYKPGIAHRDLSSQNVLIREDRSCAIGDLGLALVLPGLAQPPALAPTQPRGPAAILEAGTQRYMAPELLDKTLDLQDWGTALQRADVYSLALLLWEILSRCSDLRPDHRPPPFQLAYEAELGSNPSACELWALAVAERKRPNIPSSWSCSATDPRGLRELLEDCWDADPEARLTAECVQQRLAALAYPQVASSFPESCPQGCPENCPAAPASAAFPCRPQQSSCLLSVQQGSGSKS
Description: Results shown represent the mean values from four independent experiments performed in triplicates (Error bars represent standard error of the mean, *, P<0.05).

endogenous MISRII = biological target: T2, endogenous MISRII (Mus musculus, UniProt Q8K592); assay: BRE-luciferase reporter assay in MOVCAR7 cells expressing endogenous MISRII
T2 construct: a mouse ovarian cancer cell line, MOVCAR7, that expresses endogenous MISRII; endogenous in cells; host or cells: MOVCAR7 (mouse ovarian cancer cell line)
T2 sequence (Q8K592 16-568): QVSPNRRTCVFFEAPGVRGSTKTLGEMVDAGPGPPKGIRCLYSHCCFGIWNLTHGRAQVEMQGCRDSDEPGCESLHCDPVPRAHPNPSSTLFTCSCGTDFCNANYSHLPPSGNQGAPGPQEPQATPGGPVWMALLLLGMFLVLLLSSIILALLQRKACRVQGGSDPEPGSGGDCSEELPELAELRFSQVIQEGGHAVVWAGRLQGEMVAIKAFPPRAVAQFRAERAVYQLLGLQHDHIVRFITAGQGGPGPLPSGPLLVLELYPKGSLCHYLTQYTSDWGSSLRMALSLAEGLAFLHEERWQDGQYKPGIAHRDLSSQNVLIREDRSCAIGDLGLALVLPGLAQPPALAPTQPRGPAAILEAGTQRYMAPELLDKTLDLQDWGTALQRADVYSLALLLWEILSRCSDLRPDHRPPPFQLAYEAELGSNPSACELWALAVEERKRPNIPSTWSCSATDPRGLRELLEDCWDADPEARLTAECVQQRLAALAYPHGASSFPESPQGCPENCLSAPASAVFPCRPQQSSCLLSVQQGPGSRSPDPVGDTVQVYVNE

cancer cells = assay: Apoptosis of cancer cells; settings: 2-5 μM as compared with 10-20 μM
Description: Paclitaxel has been used in the treatment of a wide range of tumors, including ovarian, breast, and prostate. It exerts its effect by targeting the microtubules and arresting the cells in G2/M phase, leading to the induction of apoptosis (Bhalla et al, 2003, Oncogene 22:9075-908645). […] Additionally, paclitaxel is thought to exert a biphasic apoptosis effect through a p53-dependent pathway that induces apoptosis at lower concentrations, whereas at higher concentrations, it inhibits p53 expression in an […] carcinoma cell line (Tan et al., 2002; Int J Cancer 97:168-172).

4306 cells = assay: MTT proliferation assay, 4306 cells; settings: Mus musculus
Experimental: Cells were plated in 96-well plates and treated the day after. Seven days after plating the cell survival was measured using 3-(4,5-dimethylthiazol-2-yl)-2,5-diphenyltetrazolium bromide substrate and measuring the absorbance at 550 nm. […] The results shown are the mean values from three independent experiments. (Error bars represent SEM, ***p<0.001). […] Significant differences (P<0.05) in FIG. 4C were determined by one-way factorial ANOVA.
as §1

O=C1c2ccccc2-c2n[nH]c3cccc1c23 [SP600125, anthra[1,9-cd]pyrazol-6(2H)-one]
pIC50 (COS7 cells): 5.02
effect on CAGA-luciferase reporter [1]: did not have any significant effect
activation of BRE-luciferase with kinase-deficient receptor (MISRIIK228R; K228R receptor overexpressed, COS7, 24 hrs, agent alone): neither MIS nor SP600125 activates BRE-luciferase
further increase of BRE-luciferase activity by MIS in combination with SP600125, with K228R (MISRIIK228R; MIS plus SP600125, K228R receptor): completely abolished
increase in BRE-luciferase activity compared to untreated control (endogenous MISRII; 25 μM SP600125, MOVCAR7, 24 h): 5 fold
increase in the BRE-response, combined treatment (endogenous MISRII; MIS 5 μg/ml and SP600125 25 μM combined, MOVCAR7, 24 h): 16 fold
apoptosis (cancer cells): did not result in apoptosis
inhibition at 2 µM (4306 cells): 50%

— patent publication US9260759B2, “Pyrazoloanthrone and derivatives thereof for the treatment of cancers expressing MISRII” (The General Hospital Corporation, priority 2007, dated 2016)
